Target: T1, human GPR40 (Homo sapiens, UniProt O14842)
T1 construct: expressed in transfected cells
Experiment: Inositol Phosphate Turnover (IP1) Assay
Format: cell-based
Details: HEK cells stably expressing human GPR40; CisBio IP-One kit; 60 minutes at 37 degrees; read-out: Human IP1 EC50
Protocol: Human GPR40 stable cell-lines were generated in HEK cells. The expression plasmids were transfected using lipofectamine (Life Technologies) following manufacturer's instructions. Stable cell-lines were generated following drug selection and single cell cloning. The assay was performed in 384-well format. HEK cells stably expressing human GPR40 were plated at 7500 cells per well in growth medium (DMEM/10% fetal calf serum). Cell plates were then incubated 16 hours at 37 degrees in a 5% CO2 incubator. Measurement of Inositol Phosphate Turnover (IP1) was performed using the CisBio IP-One kit (Part number 62IPAPEB). After the 16 hour incubation, the growth media was removed by centrifugation using the BlueWasher (AusWasher GUI Ver. v1.0.1.8) Protocol #21-“Light Dry” and 10 ul of stimulation buffer (prepared as described in the kit) was added to each well. In a separate plate, compounds were diluted in DMSO (200-fold over the final concentration in the assay well) and 50 nl was acoustically transferred to the appropriate well in the assay cell plate. The plates were then incubated for 60 minutes at 37 degrees in a 5% CO2 incubator. 10 ul of detection buffer (also prepared as described in the IP-One kit) was added to each well and the plates were incubated at room temperature for 60 minutes in the dark. The plates were then read in a Perkin Elmer EnVision or equivalent reader able to measure FRET. […] Data was normalized to % activity using a reference compound and EC50s determined using a standard 4-parameter fit.

T1 sequence (O14842 whole entry): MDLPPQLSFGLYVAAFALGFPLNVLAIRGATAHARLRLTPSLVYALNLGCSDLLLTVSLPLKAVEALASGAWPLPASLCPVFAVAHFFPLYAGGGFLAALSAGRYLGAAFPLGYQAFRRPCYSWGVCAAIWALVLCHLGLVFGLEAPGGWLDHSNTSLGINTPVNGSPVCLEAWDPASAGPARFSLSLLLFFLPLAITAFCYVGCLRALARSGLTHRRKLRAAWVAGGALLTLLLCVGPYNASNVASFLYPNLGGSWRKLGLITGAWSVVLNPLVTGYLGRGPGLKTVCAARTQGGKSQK

Compound	EC50 [nM]
C[C@H](C(=O)O)[C@H](c1ccc2c(c1)OC1(CCCN([C@H](C)c3cc(C(F)(F)F)ccc3C(F)(F)F)C1)CC2)C1CC1 (single isomer, unassigned) [Example 73, (2S,3R)-3-((R or S)-1′-((R)-1-(2,5-bis(trifluoromethyl)phenyl)ethyl)spiro-[chroman-2,3′-piperidin]-7-yl)-3-cyclopropyl-2-methylpropanoic Acid]	186
C[C@H](C(=O)O)[C@H](c1ccc2c(c1)OC1(CCCN(Cc3cc(C(F)(F)F)ccc3C(F)(F)F)CC1)CC2)C1CC1 (single isomer, unassigned) [Example 48, sodium (2S,3R)-3-((R or S)-1-(2,5-bis (trifluoromethyl)benzyl)spiro[azepane-4,2′-chroman]-7′-yl)-3-cyclopropyl-2-methyl-propanoate]	1.06
C[C@H](NC1CC2(CCc3ccc([C@H](C4CC4)[C@H](C)C(=O)O)cc3O2)C1)c1cc(C(F)(F)F)ccc1C(F)(F)F (single isomer, unassigned) [Example 92]	24.6
C[C@H](C(=O)O)[C@H](c1ccc2c(c1)OC1(CC2)CCN([C@@H](C)c2nccnc2C(F)(F)F)CC1)C1CC1 (mixture of isomers) [Example 125, (2S,3R)-3-cyclopropyl-2-methyl-3-(1′-((RS)-1-(3-(trifluoromethyl)pyrazin-2-yl)ethyl)spiro[chroman-2,4′-piperidin]-7-yl)propanoic Acid]	415
C[C@H](C(=O)O)[C@H](c1ccc2c(c1)OC1(CC2)CCN(Cc2cc(C(F)(F)F)ccc2F)CC1)C1CC1 [Example 27, (2S,3R)-3-cyclopropyl-3-(1′-(2-fluoro-5-(trifluoromethyl)benzyl)spiro-[chroman-2,4′-piperidin]-7-yl)-2-methylpropanoic Acid]	49.5
C[C@H](C(=O)O)[C@H](c1ccc2c(c1)OC1(CCCN([C@@H](C)c3cc(C(F)(F)F)ccc3C(F)(F)F)CC1)CC2)C1CC1 (single isomer, unassigned) [Example 51, (2S,3R)-3-((R or S)-1-((S)-1-(2,5-bis (trifluoromethyl)phenyl)ethyl)spiro[azepane-4,2′-chroman]-7′-yl)-3-cyclopropyl-2-methylpropanoic acid]	14.1
C[C@H](C(=O)O)[C@H](c1ccc2c(c1)OC1(CC2)CCN(S(=O)(=O)c2ccc(Cl)cc2Cl)CC1)C1CC1 [Example 45]	148
C[C@H](C(=O)O)[C@H](c1ccc2c(c1)OC1(CC2)CCN(c2ccnc(C(F)(F)F)n2)CC1)C1CC1 [Example 56, sodium (2S3R)-3-cyclopropyl-2-methyl-3-(1′-(2-(trifluoromethyl)pyrimidin-4-yl)spiro[chroman-2,4′-piperidin]-7-yl)propanoate]	856
C[C@H](C(=O)O)[C@H](c1ccc2c(c1)OC1(CCCN(Cc3cc(C(F)(F)F)ccc3C(F)(F)F)CC1)CC2)C1CC1 (single isomer, unassigned) [Example 47, (2S,3R)-3-((R or S)-1-(2,5-bis(trifluoromethyl)benzyl)spiro[azepane-4,2′-chroman]-7′-yl)-3-cyclopropyl-2-methylpropanoic Acid]	2.64
CCC(c1cc(C(F)(F)F)cc(Cl)c1F)N1CCC2(CCc3ccc([C@H](C4CC4)[C@H](C)C(=O)O)cc3O2)CC1 (stereo partly drawn) [Example 109, (2S,3R)-3-(1′-(1-(3-chloro-2-fluoro-5-(tri-fluromethyl)phenyl)propyl)spiro[chroman-2,4′-piperidin]-7-yl)-3-cyclopropyl-2-methylpropanoic acid]	2.51

The remaining compounds from weak to strong by EC50, led by results:

EC50 [nM]	Compound
140	COc1ncc(C(F)(F)F)cc1C(C)N1CCC2(CCc3ccc([C@H](C4CC4)[C@H](C)C(=O)O)cc3O2)CC1 (single isomer, unassigned) [Example 103, (2S,3R)-3-cyclopropyl-3-(1′-((S or R)-1-(2-methoxy-5-(trifluoro-methyl)pyridin-3-yl)ethyl)spiro[chroman-2,4′-piperidin]-7-yl)-2-methylpropanoic acid]
102	C[C@H](C(=O)O)[C@H](c1ccc2c(c1)OC1(CC2)[C@@H]2CC[C@H]1CN([C@H](C)c1cc(C(F)(F)F)ccc1C(F)(F)F)C2)C1CC1 (single isomer, unassigned) [Example 81]
64.1	C[C@H](C(=O)O)[C@H](c1ccc2c(c1)OC1(CC2)CCN(Cc2cc(C#N)ccc2OC(F)(F)F)CC1)C1CC1 [Example 124, (2S,3R)-3-(1′-(5-cyano-2-(trifluoro-methoxy)-benzyl)spiro[chroman-2,4′-piperidin]-7-yl)-3-cyclopropyl-2-methylpropanoic acid]
57	C[C@H](C(=O)O)[C@H](c1ccc2c(c1)OC1(CC2)CC(Nc2ncccc2C(F)(F)F)C1)C1CC1 (single isomer, unassigned) [Example 88]
27.9	C[C@H](C(=O)O)[C@H](c1ccc2c(c1)OC1(CC2)CCC(Nc2cc(C(F)(F)F)ccc2C(F)(F)F)CC1)C1CC1 (single isomer, unassigned) [Example 64]
14.3	CC(c1cc(Cl)ccc1F)N1CCC2(CCc3ccc([C@H](C4CC4)[C@H](C)C(=O)O)cc3O2)CC1 (single isomer, unassigned) [Example 78, (2S,3R)-3-(1′-((R or S)-1-(5-chloro-2-fluorophenyl)ethyl)spiro[chroman-2,4′-piperidin]-7-yl)-3-cyclopropyl-2-methylpropanoic Acid]
11.7	C[C@H](C(=O)O)[C@H](c1ccc2c(c1F)OC1(CC2)CCN(Cc2cc(F)ccc2OC(F)(F)F)CC1)C1CC1 [Example 3, (2S,3R)-3-cyclopropyl-3-(8-fluoro-1′-(5-fluoro-2-(trifluoromethoxy)-benzyl)spiro[chroman-2,4′-piperidin]-7-yl)-2-methylpropanoic acid]
11	CC(c1cc(C(F)(F)F)ccc1F)N1CCC2(CCc3ccc([C@H](C4CC4)[C@H](C)C(=O)O)cc3O2)CC1 (mixture of isomers) [Example 28, (2S,3R)-3-cyclopropyl-3-(1′-((RS)-1-(2-fluoro-5-(trifluoromethyl)phenyl)ethyl)spiro[chroman-2,4′-piperidin]-7-yl)-2-methylpropanoic acid]
4.43	CC(c1cc(C2CC2)ccc1C(F)(F)F)N1CCC2(CCc3ccc([C@H](C4CC4)[C@H](C)C(=O)O)cc3O2)CC1 (single isomer, unassigned) [Example 58, (2S,3R)-3-cyclopropyl-3-(1′-((S or R)-1-(5-cyclo-propyl-2-(trifluoromethyl)-phenyl)ethyl)-spiro [chroman-2,4′-piperidin]-7-yl)-2-methylpropanoic acid]
1.4	CC(c1cc(Cl)ccc1OC(F)(F)F)N1CCC2(CCc3ccc([C@H](C4CC4)[C@H](C)C(=O)O)cc3O2)CC1 (stereo partly drawn) [Example 134, Sodium (2S,3R)-3-(1′-(1-(5-chloro-2-(trifluoromethoxy)phenyl)ethyl)spiro[chromane-2,4′-piperidin]-7-yl)-3-cyclopropyl-2-methylpropanoate]
0.73	CCC(c1cc(C(F)(F)F)ccc1C(F)(F)F)N1CCC2(CCc3ccc([C@H](C4CC4)[C@H](C)C(=O)O)cc3O2)CC1 (stereo in doubt) [Example 9, (2S,3R)-3-(1′-((S)-1-(2,5-bis(trifluoromethyl)phenyl)propyl)spiro[chroman-2,4′-piperidin]-7-yl)-3-cyclopropyl-2-methylpropanoic Acid]
0.41	C[C@H](C(=O)O)[C@H](c1ccc2c(c1)OC1(CC2)CCC(Nc2ncccc2C(F)(F)F)CC1)C1CC1 (single isomer, unassigned) [Example 68]

— patent US10968232B2 (Merck Sharp & Dohme Corp., priority 2016, dated 2021)
